Five compounds from BindingDB's records for patent US11401286 (Tetra Discovery Partners, LLC, 2022) can be followed below.

Assay [1] concerns the target Isoform 7 of cAMP-specific 3',5'-cyclic phosphodiesterase 4D (Human, UniProt Q08499). The experiment in a line: Kinetic Assay.
Assay [2] deals with cAMP-specific 3',5'-cyclic phosphodiesterase 4B [S133D] (Human, UniProt Q07343, S133D). The experiment in a line: Kinetic Assay.
Chain of cAMP-specific 3',5'-cyclic phosphodiesterase 4B [S133D] (Q07343 whole entry S133D): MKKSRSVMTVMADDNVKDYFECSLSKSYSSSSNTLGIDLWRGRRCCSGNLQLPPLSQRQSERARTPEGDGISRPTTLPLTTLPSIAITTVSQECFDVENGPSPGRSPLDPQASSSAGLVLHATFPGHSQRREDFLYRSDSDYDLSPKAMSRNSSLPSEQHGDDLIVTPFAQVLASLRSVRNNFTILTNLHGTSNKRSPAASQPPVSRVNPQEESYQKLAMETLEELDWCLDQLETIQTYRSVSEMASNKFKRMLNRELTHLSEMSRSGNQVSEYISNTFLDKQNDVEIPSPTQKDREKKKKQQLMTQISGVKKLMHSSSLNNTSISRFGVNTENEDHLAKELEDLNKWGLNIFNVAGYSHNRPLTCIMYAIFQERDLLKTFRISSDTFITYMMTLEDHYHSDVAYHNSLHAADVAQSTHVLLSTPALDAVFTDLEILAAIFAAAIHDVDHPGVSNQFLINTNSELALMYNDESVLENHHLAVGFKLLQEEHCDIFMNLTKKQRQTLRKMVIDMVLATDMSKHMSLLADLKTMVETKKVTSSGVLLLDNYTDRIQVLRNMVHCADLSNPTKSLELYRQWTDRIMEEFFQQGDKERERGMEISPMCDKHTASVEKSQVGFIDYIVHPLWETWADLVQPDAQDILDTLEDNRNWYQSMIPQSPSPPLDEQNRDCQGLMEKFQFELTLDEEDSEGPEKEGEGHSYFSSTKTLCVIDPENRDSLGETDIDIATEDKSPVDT

Chain of Isoform 7 of cAMP-specific 3',5'-cyclic phosphodiesterase 4D (Q08499 as listed by the source): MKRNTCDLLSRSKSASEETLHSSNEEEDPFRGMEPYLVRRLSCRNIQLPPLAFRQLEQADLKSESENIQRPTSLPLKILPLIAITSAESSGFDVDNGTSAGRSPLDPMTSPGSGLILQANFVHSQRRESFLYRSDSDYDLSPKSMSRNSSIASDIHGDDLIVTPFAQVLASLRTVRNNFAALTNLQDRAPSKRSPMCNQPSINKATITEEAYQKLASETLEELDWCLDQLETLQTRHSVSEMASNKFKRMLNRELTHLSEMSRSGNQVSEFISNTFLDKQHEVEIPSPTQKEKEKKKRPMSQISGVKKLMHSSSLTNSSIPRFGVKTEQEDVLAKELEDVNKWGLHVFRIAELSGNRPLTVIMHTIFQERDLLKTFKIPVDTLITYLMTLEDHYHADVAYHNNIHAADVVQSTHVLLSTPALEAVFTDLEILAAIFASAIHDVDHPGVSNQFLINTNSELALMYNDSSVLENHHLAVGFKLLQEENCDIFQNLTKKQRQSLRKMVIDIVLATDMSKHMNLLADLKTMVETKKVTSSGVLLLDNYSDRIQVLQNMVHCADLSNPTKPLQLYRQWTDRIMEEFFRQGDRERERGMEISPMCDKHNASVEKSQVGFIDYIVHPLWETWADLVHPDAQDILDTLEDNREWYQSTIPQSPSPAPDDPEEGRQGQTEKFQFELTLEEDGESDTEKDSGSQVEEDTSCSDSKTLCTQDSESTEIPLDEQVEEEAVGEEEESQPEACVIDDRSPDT

A word on the IC50: it is the point on the concentration scale where inhibition reaches its midpoint. Low values mean greater potency in that assay, high ones weaker potency in that assay. Regarding `Cc1nc(Nc2ccc(CC(=O)O)cc2)nc(-c2ccc(Cl)s2)n1` [US11401286, Example 22], the IC50 in assay [1] and in assay [2] was greater than 1 µM each time.
As for `OCCc1ccc(Nc2cc(-c3cccc(Cl)c3)nc3c2CCC3)cn1` [US11401286, Example 90], the IC50 in assay [1] and in assay [2] was greater than 1 µM throughout.
As to `N#CC1CCC(c2cc(Nc3ccc(CC(N)=O)cc3)c3c(n2)CCC3)C1` (centres undefined) [US11401286, Example 138], the IC50 in assay [1] is greater than 1 µM; in assay [2], less than 1 µM.
As for `NC(=O)Cc1ccc(Nc2cc(C3CCCC3)nc3c2CCC3)cc1` [US11401286, Example 247], the IC50 was greater than 1 µM in assay [1] and less than 1 µM in assay [2].
`CCc1c(C)nc(-c2ccc(Cl)s2)nc1Nc1ccc(Cn2nccn2)cc1` [US11401286, Example 300] gave an IC50 in assay [2] of less than 1 µM.
